Tested on: Capan-1 human pancreatic cancer cell
Experiment: In vivo pharmacodynamics, subcutaneous Capan-1 pancreatic cancer xenograft model
Design: species or system female BALB/c nude mouse
Details: Capan-1 xenograft, 100 mg/kg PO QD 21 days
Experimental: Culture medium of Capan-1 pancreatic cancer cell: IMDM culture medium+10% fetal bovine serum+100 U/mL penicillin and 100 μg/mL streptomycin+2 mM glutamine.
Cells were cultured and passaged. Tumor cells in exponential growth phase were used for in vivo tumor seeding. The cells were seeded subcutaneously to right lateral thorax of female BALB/c nude mouse. When tumor grew to a volume of about 150 mm^3, the animals were grouped and administered with a drug. Compound 1 was orally administrated once a day at an amount of 100 mg/kg, for 21 days. The volume of the drug for administration is 0.1 mL/10 g according to animal's body weight.
Tumor volume was measured with vernier calipers twice a week by measuring the major diameter and the minor diameter. The tumor volume is calculated by the following formula: volume=0.5×(major diameter)×[…]. The relative tumor volume (RTV) and the proliferation ratio (T/C) were calculated according to the result of measurement. RTV=Vt/V0, wherein Vt is the average tumor volume on the t day after grouping, and V0 is the average tumor volume on the day of grouping. T/C=RTV of treatment group/RTV of solvent control group×100%.
SPSS statistical software was used for T test on the 2 groups of independent samples, and for group statistical analysis of tumor volumes. p<0.05 was regarded as having significant difference.

## CCN1CCN(Cc2cnc(Nc3cc(-c4cc(F)c5nc(C)n(C(C)C)c5c4)c(F)cn3)nc2)CC1 [Compound 1, 5-((4-ethylpiperazin-1-yl)methyl)-N-(5-fluoro-4-(4-fluoro-1-isopropyl-2-methyl-1H-benzo[d]imidazol-6-yl)pyridin-2-yl)pyrimidin-2-amine]
  T/C: 31.5%
  TGI (inhibition ratio of tumor growth): 68.5%
Average ± standard error
  Tumor volume after administration: 368 ± 48 mm^3
  Tumor volume before administration: 150 ± 12 mm^3

From patent publication US9949976B2, “Kinase inhibitor and use thereof” (Sihuan Pharmaceutical Holdings Group Ltd., priority 2013, dated 2018)
